# From ChEMBL document CHEMBL4732177 (J Med Chem, 2021)
# Bridge positions count the residues as written; N and C are the ends. Square brackets hold non-standard residues; d marks the D form. Peptide text beside a SMILES is read from it. NMeR = CN[C@@H](CCCNC(=N)N)C(=O)O; AllylGly = C=CC[C@H](N)C(=O)O; Pen = CC(C)(S)[C@H](N)C(=O)O
# Tests used:
# [1] = target: Neurotensin receptor type 2 (Homo sapiens, UniProt O95665); test: Displacement of [125I]Tyr3-neurotensin from human recombinant NTS2 stably expressed in human 1321N1 cell membranes incubated for 60 mins by gamma counter analysis; parameters: species or system Cell membrane
# Sequence of Neurotensin receptor type 2 (O95665 whole entry): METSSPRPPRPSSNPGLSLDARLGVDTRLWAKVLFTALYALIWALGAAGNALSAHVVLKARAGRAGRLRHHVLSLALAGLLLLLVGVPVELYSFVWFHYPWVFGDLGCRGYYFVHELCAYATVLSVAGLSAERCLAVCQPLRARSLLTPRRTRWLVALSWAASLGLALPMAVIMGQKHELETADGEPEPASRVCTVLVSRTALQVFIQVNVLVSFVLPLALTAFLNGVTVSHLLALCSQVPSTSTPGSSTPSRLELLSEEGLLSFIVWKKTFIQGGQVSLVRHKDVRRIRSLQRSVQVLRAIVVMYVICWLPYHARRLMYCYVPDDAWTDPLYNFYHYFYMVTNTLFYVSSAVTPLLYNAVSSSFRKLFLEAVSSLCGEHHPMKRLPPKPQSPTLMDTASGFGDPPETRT
# [2] = target: Neurotensin receptor type 1 (Homo sapiens, UniProt P30989); test: Displacement of [125I]Tyr3-neurotensin from human recombinant NTS1 stably expressed in CHO-K1 cell membranes incubated for 60 mins by gamma counter analysis; parameters: species or system Cell membrane
# Sequence of Neurotensin receptor type 1 (Homo sapiens, UniProt P30989) (P30989 whole entry): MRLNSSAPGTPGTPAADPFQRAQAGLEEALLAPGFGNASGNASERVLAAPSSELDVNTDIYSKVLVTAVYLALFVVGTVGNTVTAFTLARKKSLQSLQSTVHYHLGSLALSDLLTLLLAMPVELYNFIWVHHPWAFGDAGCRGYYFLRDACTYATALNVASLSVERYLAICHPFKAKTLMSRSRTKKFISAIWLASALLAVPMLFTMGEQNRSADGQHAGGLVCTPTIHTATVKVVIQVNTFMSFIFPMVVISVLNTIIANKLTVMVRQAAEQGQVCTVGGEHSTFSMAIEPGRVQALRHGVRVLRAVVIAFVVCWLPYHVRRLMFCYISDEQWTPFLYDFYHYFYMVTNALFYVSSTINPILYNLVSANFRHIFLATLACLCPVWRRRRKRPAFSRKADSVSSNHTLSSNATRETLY
# [3] = target: Neurotensin receptor type 1 (Mus musculus, UniProt O88319); test: Displacement of [3H]-neurotensin from NTS1 in mouse brain membrane incubated for 30 mins by liquid scintillation counter analysis; assay type: cell membranes
# Sequence of Neurotensin receptor type 1 (Mus musculus, UniProt O88319) (O88319 whole entry): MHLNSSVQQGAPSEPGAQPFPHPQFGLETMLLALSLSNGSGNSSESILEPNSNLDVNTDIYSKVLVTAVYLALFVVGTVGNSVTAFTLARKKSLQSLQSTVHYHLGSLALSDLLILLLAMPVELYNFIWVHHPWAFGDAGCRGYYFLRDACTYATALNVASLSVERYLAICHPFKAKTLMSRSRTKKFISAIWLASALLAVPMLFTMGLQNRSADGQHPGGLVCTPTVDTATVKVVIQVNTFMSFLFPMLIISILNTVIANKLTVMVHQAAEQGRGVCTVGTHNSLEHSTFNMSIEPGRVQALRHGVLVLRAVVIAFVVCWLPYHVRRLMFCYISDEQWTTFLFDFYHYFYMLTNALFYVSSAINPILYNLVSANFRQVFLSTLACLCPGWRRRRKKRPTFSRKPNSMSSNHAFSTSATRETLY
Compound,Ki [1] [nM],Ki [2] [nM],Ki [3] [nM]
CC[C@@H](C)[C@H](NC(=O)[C@H](CC(C)C)NC(=O)[C@H](Cc1ccc(O)cc1)NC(=O)[C@@H]1C/C=C\C[C@H](N)C(=O)N[C@@H](CCCCN)C(=O)N[C@@H](CCCCN)C(=O)N1)C(=O)O,> 10000,> 100000,
CC[C@H](C)[C@H](NC(=O)[C@H](Cc1ccc(O)cc1)NC(=O)[C@@H]1CCCN1C(=O)[C@H](CCCNC(=N)N)NC(=O)[C@H](CCCNC(=N)N)NC(=O)[C@@H]1CCCN1C(=O)[C@H](CCCCN)NC(=O)[C@H](CC(N)=O)NC(=O)[C@H](CCC(=O)O)NC(=O)[C@H](Cc1ccc(O)cc1)NC(=O)[C@H](C)NC(=O)[C@@H]1CCC(=O)N1)C(=O)N[C@@H](CC(C)C)C(=O)O,6.8,2.4,
CC[C@H](C)[C@H](NC(=O)[C@H](C)NC(=O)[C@@H]1CCCN1C(=O)[C@H](CCCN=C(N)N)NC(=O)[C@H](CCCN=C(N)N)NC(=O)[C@@H]1CCCN1C(=O)[C@H](CCCCN)NC(=O)[C@H](CC(N)=O)NC(=O)[C@H](CCC(=O)O)NC(=O)[C@H](Cc1ccc(O)cc1)NC(=O)[C@H](CC(C)C)NC(=O)[C@@H]1CCC(=O)N1)C(=O)N[C@@H](CC(C)C)C(=O)O,590,> 10000,
CC[C@H](C)[C@H](NC(=O)[C@H](Cc1ccc(O)cc1)NC(=O)[C@@H]1CCCN1C(=O)[C@H](CCCNC(=N)N)NC(=O)[C@H](CCCNC(=N)N)NC(=O)[C@@H]1CCCN1C(=O)[C@H](CCCCN)NC(=O)[C@H](CC(N)=O)NC(=O)[C@H](CCC(=O)O)NC(=O)[C@H](C)NC(=O)[C@H](CC(C)C)NC(=O)[C@@H]1CCC(=O)N1)C(=O)N[C@@H](CC(C)C)C(=O)O,8.7,2.8,
CC(C)C[C@H](NC(=O)[C@H](Cc1ccc(O)cc1)NC(=O)[C@H]1C/C=C\C[C@@H](N)C(=O)N[C@@H](CCCCN)C(=O)N[C@@H](CCCCN)C(=O)N1)C(=O)O,2200,> 100000,
CC(C)C[C@H](NC(=O)[C@H](Cc1ccc(O)cc1)NC(=O)[C@@H]1C/C=C\C[C@@H](N)C(=O)N[C@@H](CCCCN)C(=O)N[C@@H](CCCCN)C(=O)N1)C(=O)O,100,> 100000,
CC[C@H](C)[C@H](NC(=O)[C@H](Cc1ccc(O)cc1)NC(=O)[C@@H]1CCCN1C(=O)[C@H](CCCNC(=N)N)NC(=O)[C@H](CCCNC(=N)N)NC(=O)[C@H](C)NC(=O)[C@H](CCCCN)NC(=O)[C@H](CC(N)=O)NC(=O)[C@H](CCC(=O)O)NC(=O)[C@H](Cc1ccc(O)cc1)NC(=O)[C@H](CC(C)C)NC(=O)[C@@H]1CCC(=O)N1)C(=O)N[C@@H](CC(C)C)C(=O)O,4.6,2.9,
CC[C@H](C)[C@H](NC(=O)[C@H](Cc1ccc(O)cc1)NC(=O)[C@@H]1CCCN1C(=O)[C@H](CCCNC(=N)N)NC(=O)[C@H](CCCNC(=N)N)NC(=O)[C@@H]1CCCN1C(=O)[C@H](CCCCN)NC(=O)[C@H](CC(N)=O)NC(=O)[C@H](C)NC(=O)[C@H](Cc1ccc(O)cc1)NC(=O)[C@H](CC(C)C)NC(=O)[C@@H]1CCC(=O)N1)C(=O)N[C@@H](CC(C)C)C(=O)O,2.7,1.8,
H-RRPYL-OH,391,> 100000,
CN[C@@H](CCCNC(=N)N)C(=O)N[C@H]1CSSC(C)(C)[C@@H](C(=O)N[C@@H](CC(C)C)C(=O)O)NC(=O)[C@H](Cc2c[nH]c3ccccc23)NC(=O)[C@@H]2CCCN2C1=O (H-[NMeR]CPW[Pen]L-OH; disulfide 2-5),,,83
CC[C@@H](C)[C@H](NC(=O)[C@H](Cc1ccc(O)cc1)NC(=O)[C@@H]1C/C=C\C[C@H](N)C(=O)N[C@@H](CCCCN)C(=O)N[C@@H](CCCCN)C(=O)N1)C(=O)N[C@@H](CC(C)C)C(=O)O,> 10000,> 10000,
CC[C@H](C)[C@H](NC(=O)[C@H](Cc1ccc(O)cc1)NC(=O)[C@@H]1CCCN1C(=O)[C@H](CCCNC(=N)N)NC(=O)[C@H](C)NC(=O)[C@@H]1CCCN1C(=O)[C@H](CCCCN)NC(=O)[C@H](CC(N)=O)NC(=O)[C@H](CCC(=O)O)NC(=O)[C@H](Cc1ccc(O)cc1)NC(=O)[C@H](CC(C)C)NC(=O)[C@@H]1CCC(=O)N1)C(=O)N[C@@H](CC(C)C)C(=O)O,95,75,
CN[C@@H](CCCNC(=N)N)C(=O)N[C@H]1CCCCNC(=O)CC[C@@H](C(=O)N[C@@H](CC(C)C)C(=O)O)NC(=O)[C@H](Cc2c[nH]c3ccccc23)NC(=O)[C@@H]2CCCN2C1=O (H-[NMeR]KPWEL-OH; lactam 2-5),,,770
CC(C)C[C@H](NC(=O)[C@H](Cc1ccc(O)cc1)NC(=O)[C@@H]1CCCC[C@H](N)C(=O)N[C@@H](CCCCN)C(=O)N[C@@H](CCCCN)C(=O)N1)C(=O)O,90,> 100000,
CC[C@H](C)[C@H](NC(=O)[C@H](Cc1ccc(O)cc1)NC(=O)[C@H](CCCCN)NC(=O)[C@@H]1C/C=C\C[C@H](N)C(=O)N[C@@H](CCCCN)C(=O)N1)C(=O)N[C@@H](CC(C)C)C(=O)O (H-[AllylGly]K[AllylGly]KYIL-OH; staple (Z) 1-3),> 10000,> 100000,
CC[C@H](C)[C@H](NC(=O)[C@H](Cc1ccc(O)cc1)NC(=O)[C@@H]1CCCN1C(=O)[C@@H](C)NC(=O)[C@H](CCCN=C(N)N)NC(=O)[C@@H]1CCCN1C(=O)[C@H](CCCCN)NC(=O)[C@H](CC(N)=O)NC(=O)[C@H](CCC(=O)O)NC(=O)[C@H](Cc1ccc(O)cc1)NC(=O)[C@H](CC(C)C)NC(=O)[C@@H]1CCC(=O)N1)C(=O)N[C@@H](CC(C)C)C(=O)O,,174,
CC[C@H](C)[C@H](NC(=O)[C@H](Cc1ccc(O)cc1)NC(=O)[C@@H]1CCCN1C(=O)[C@H](CCCNC(=N)N)NC(=O)[C@H](CCCNC(=N)N)NC(=O)[C@@H]1CCCN1C(=O)[C@H](CCCCN)NC(=O)[C@H](CC(N)=O)NC(=O)[C@H](CCC(=O)O)NC(=O)[C@H](Cc1ccc(O)cc1)NC(=O)[C@H](CC(C)C)NC(=O)[C@@H]1CCC(=O)N1)C(=O)N[C@@H](C)C(=O)O,655,> 10000,
CC[C@H](C)[C@H](NC(=O)[C@H](Cc1ccc(O)cc1)NC(=O)[C@@H]1CCCN1C(=O)[C@H](C)NC(=O)[C@H](CCCN=C(N)N)NC(=O)[C@@H]1CCCN1C(=O)[C@H](CCCCN)NC(=O)[C@H](CC(N)=O)NC(=O)[C@H](CCC(=O)O)NC(=O)[C@H](Cc1ccc(O)cc1)NC(=O)[C@H](CC(C)C)NC(=O)[C@@H]1CCC(=O)N1)C(=O)N[C@@H](CC(C)C)C(=O)O,10,,
CC[C@H](C)[C@H](NC(=O)[C@H](Cc1ccc(O)cc1)NC(=O)[C@@H]1CCCN1C(=O)[C@H](CCCNC(=N)N)NC(=O)[C@H](CCCNC(=N)N)NC(=O)[C@@H]1CCCN1C(=O)[C@H](C)NC(=O)[C@H](CC(N)=O)NC(=O)[C@H](CCC(=O)O)NC(=O)[C@H](Cc1ccc(O)cc1)NC(=O)[C@H](CC(C)C)NC(=O)[C@@H]1CCC(=O)N1)C(=O)N[C@@H](CC(C)C)C(=O)O,9.3,6,
CC(C)C[C@H](NC(=O)[C@H](Cc1ccc(O)cc1)NC(=O)[C@H]1CCCN1C(=O)[C@@H]1C/C=C\C[C@H](N)C(=O)N[C@@H](CCCCN)C(=O)N[C@@H](CCCCN)C(=O)N1)C(=O)O,200,> 100000,
CC(C)C[C@H](NC(=O)[C@H](Cc1ccc(O)cc1)NC(=O)[C@H]1C/C=C\C[C@H](N)C(=O)N[C@@H](CCCCN)C(=O)N[C@@H](CCCCN)C(=O)N1)C(=O)O,1100,> 100000,
CC[C@H](C)[C@H](NC(=O)[C@H](Cc1ccc(O)cc1)NC(=O)[C@@H]1CCCN1C(=O)[C@H](CCCNC(=N)N)NC(=O)[C@H](CCCNC(=N)N)NC(=O)[C@@H]1CCCN1C(=O)[C@H](CCCCN)NC(=O)[C@H](CC(N)=O)NC(=O)[C@H](CCC(=O)O)NC(=O)[C@H](Cc1ccc(O)cc1)NC(=O)[C@H](CC(C)C)NC(=O)[C@H](C)N)C(=O)N[C@@H](CC(C)C)C(=O)O,8.7,2,
CC[C@H](C)[C@H](NC(=O)[C@H](Cc1ccc(O)cc1)NC(=O)[C@@H]1CCCN1C(=O)[C@H](CCCNC(=N)N)NC(=O)[C@H](CCCNC(=N)N)NC(=O)[C@@H]1CCCN1C(=O)[C@H](CCCCN)NC(=O)[C@H](C)NC(=O)[C@H](CCC(=O)O)NC(=O)[C@H](Cc1ccc(O)cc1)NC(=O)[C@H](CC(C)C)NC(=O)[C@@H]1CCC(=O)N1)C(=O)N[C@@H](CC(C)C)C(=O)O,8.8,2.4,
CC(C)C[C@H](NC(=O)[C@H](Cc1ccc(O)cc1)NC(=O)[C@@H]1CSSC[C@H](N)C(=O)N[C@@H](CCCCN)C(=O)N[C@@H](CCCCN)C(=O)N1)C(=O)O (H-CKKCYL-OH; disulfide 1-4),1500,> 100000,
CC[C@H](C)[C@H](NC(=O)[C@H](Cc1ccc(O)cc1)NC(=O)[C@H](C)NC(=O)[C@H](CCCNC(=N)N)NC(=O)[C@H](CCCNC(=N)N)NC(=O)[C@@H]1CCCN1C(=O)[C@H](CCCCN)NC(=O)[C@H](CC(N)=O)NC(=O)[C@H](CCC(=O)O)NC(=O)[C@H](Cc1ccc(O)cc1)NC(=O)[C@H](CC(C)C)NC(=O)[C@@H]1CCC(=O)N1)C(=O)N[C@@H](CC(C)C)C(=O)O,16,161,
CC[C@H](C)[C@H](NC(=O)[C@H](Cc1ccc(O)cc1)NC(=O)[C@@H]1CCCN1C(=O)[C@H](CCCNC(=N)N)NC(=O)[C@@H](N)CCCNC(=N)N)C(=O)O,620,> 100000,
CC[C@@H](C)[C@H](NC(=O)[C@H](Cc1ccc(O)cc1)NC(=O)[C@@H]1C/C=C\C[C@H](NC(=O)[C@@H](N)CCCCN)C(=O)N[C@@H](CCCCN)C(=O)N1)C(=O)N[C@@H](CC(C)C)C(=O)O,> 10000,> 100000,
CC(C)C[C@H](NC(=O)[C@H](Cc1ccc(O)cc1)NC(=O)[C@H]1C/C=C\C[C@H](N)C(=O)N[C@@H](CCCCN)C(=O)N[C@@H](CCCCN)C(=O)N2CCC[C@H]2C(=O)N1)C(=O)O,2500,> 100000,
CC[C@@H](C)[C@H](NC(=O)[C@H](Cc1ccc(O)cc1)NC(=O)[C@@H]1C/C=C\C[C@H](N)C(=O)N[C@@H](CCCCN)C(=O)N[C@@H](CCCCN)C(=O)N1)C(=O)O,> 10000,> 100000,
CC[C@@H](C)[C@H](NC(=O)[C@@H]1C/C=C\C[C@H](N)C(=O)N[C@@H](CCCCN)C(=O)N[C@@H](CCCCN)C(=O)N[C@@H](Cc2ccc(O)cc2)C(=O)N1)C(=O)N[C@@H](CC(C)C)C(=O)O,1300,> 10000,
